Patent publication US10576145B2, “CD200 inhibitors and methods of use thereof” (REGENTS OF THE UNIVERSITY OF MINNESOTA, priority 2014, dated 2020)
Entries after “also recorded” stand apart in the source; their conditions may differ.

Legend:
[1] = system: EMT6 tumor bearing mice; assay: EMT6 breast carcinoma model: tumor lysate + CpG +/- competitive inhibitor, survival; assay type: in vivo, BALB/c mice
Protocol: FIG. 6. Percent survival of mice inoculated with 1×10^6 EMT6 cells. To determine if our competitive inhibitors worked in other tumor models, mice were inoculated in the fat pad with 1×10^6 EMT6 cells. Specifically, mice were vaccinated with 65 μg of EMT6 tumor lysates+50 μg of adjuvant CpG and 50 μg of different completive inhibitors (6059, 4004, 4013 and 6061) and monitored for survival. Saline and tumor lysate+adjuvant CpG were used as controls.
FIGS. 19A-19B. Select CD200 antagonists enhance survival. (FIG. 19A) EMT6 tumor bearing mice were vaccinated with tumor lysate, CpG+/−CD200 antagonist 4004, 4013 or 6059. […] Log-rank analysis was used for survival.
(§1) Tumors were implanted into female C57BL/6 mice (6-8 wk old) (Jackson Laboratory) and maintained in a pathogen-free facility according to the guidelines of the University of Minnesota Animal Care and Use Committee. The GL261 orthotopic transplant model was established in C57BL/6 (B6) mice by inoculation with 15,000 GL261-Luc^+ cells in 1 μl of saline. Tumors were implanted stereotactically into the right striatum; coordinates were 2.5 mm lateral, 0.5 mm anterior of bregma, and 3 mm deep from the cortical surface of the brain^19. Tumor burden was determined by bioluminescent imaging. Light emitted from the tumors was quantified using Living Image software (Xenogen) and expressed as photons per second per centimeter squared per steradian (p/s/cm^2/sr). GL261 cells for tumor lysate vaccines were cultured in neural stem cell media consisting of DMEM/F12 (1:1) with L-glutamine, sodium bicarbonate, penicillin/streptomycin (100 U/ml), B27 and N2 supplements (Life Technologies), and 0.1 mg/ml Normocin (Invivogen). Cultures were maintained at 5% 02 and supplemented with 20 ng/ml EGF and FGF semiweekly (R&D Systems, Minneapolis, Minn.). […] Mice were euthanized when tumors reached 1000 mm^3. […] Tumor cells used to establish both models were cultured in DMEM containing 10% FBS, penicillin/streptomycin (100 U/ml), and 0.1 mg/ml Normocin (Invivogen) in atmospheric oxygen.

[2] = system: GL261 tumor bearing mice; assay: GL261 glioma model: tumor lysate vaccine +/- antagonist, tumor growth by imaging and survival; assay type: in vivo, C57BL/6 mice; conditions: for Tumor growth: GL261, tumor lysate vaccine + antagonist vs tumor lysate alone or saline, weekly imaging; for Survival: GL261 glioma model, tumor lysate vaccine + antagonist
Protocol: FIGS. 4A-4C. FIG. 4A) GL261 tumor bearing mice were inoculated with 50 μg of antagonist 6059 one day prior to vaccination with tumor lysate (65 μg)+/−the antagonist 6059 (50 μg). FIG. 4B) Mice were imaged weekly for tumor growth. The following groups were studied: saline (1), tumor lysate (2), and tumor lysate+6059 (3). FIG. 4C) Percent survival post inoculation for saline (1), tumor lysate (2), and tumor lysate+6059 (3) groups.
FIGS. 5A-5B. FIG. 5A) GL261 tumor bearing mice were inoculated with 10 μg of 6059 on day 2 into the tumor site then with 50 μg of antagonist 6059 one day prior to vaccination with tumor lysate (65 μg)+the antagonist 6059 (50 μg). FIG. 5B) Mice were imaged weekly for tumor growth. The following groups were studied: saline (1), tumor lysate+6059 (2), and CNS+tumor lysate+6059 (3) groups.
Whether vaccination with CD200R antagonists could enhance the survival of tumor-bearing mice was also studied. […] GL261 tumor bearing mice were vaccinated weekly with saline, tumor lysates (TL) or tumor lysates+an antagonist (4004, 4013, 6059).
Tumor-bearing mice were inoculated in the brain with 10 μg of the inhibitor 6059 at the same coordinates at which the tumor was injected two days previously. This was followed by weekly injections of tumor lysate+inhibitor (FIGS. 5A-5B).
as §1
Tumor lysates were prepared by dissociating tumor cells with non-enzymatic dissociation solution (Sigma). Cells were then washed 3 times with PBS, re-suspended in 500 μL PBS, and frozen overnight at −80° C. Cells were then lysed by five freeze/thaw cycles of freezing in liquid nitrogen and thawing in a 55° C. water bath. Cell debris was pelleted by centrifugation at 14,000 RCF, and the protein concentration of the supernatant was determined using a Bradford assay. Lysates were stored at −80° C. until use. Each vaccine was prepared on the day of vaccination and consisted of 65 μg of protein tumor lysate and 10 μg Poly:ICLC (Oncovir, Inc.), with or without 50 μg of the 6059 peptide antagonist, in a final volume of 100 μL injected intradermally in the back of the neck. For survival studies, vaccines were administered weekly starting three days post-tumor implantation for a total of 6 doses. In T cell priming experiments, CD8 T-cell priming experiments, animals were vaccinated intradermally on four consecutive days with 100 μg Ovalbumin (OVA) and 10 μg Poly:ICLC, and once more on day eleven^19.

[3] = system: splenocytes; assay: Splenocytes pulsed with OVA + antagonist, OT-1 T cells added, cytokine production by flow cytometric bead array; assay type: cell-based; conditions: pulsed 24 hours, 48 hours with OT-1 T cells
Protocol: FIGS. 11A-11B. Splenocytes were pulsed with OVA+an inhibitor peptide and incubated for 24 h. Following incubation, cells were washed, purified OT1 were added to wells and incubated for an additional 48 hrs then analyzed for FIG. 11A) TNFa and IL-6 production; and FIG. 11B) IL-2 and IL-17 production. Error bars indicate +/−SEM (n=4/group; *P<0.05; ** P<0.01).
Whether the different antagonists described by Gorczynski et. al. (J Surg Res 2008; 145(1): 87-96) could modulate or reverse the suppressive effects of the tumor microenvironment was also investigated. It was concluded that different antagonists either act through different CD200R isoforms or have different biological effects on the same receptor. These conclusions were supported by experiments where splenocytes were pulsed with OVA+selected CD200R antagonists (6061, 6069, 4004, 4006, 4013) for 24 hours. The splenocytes were then washed and cultured for 48 hours with the addition of OT-1 T cells. The cultures were then assessed for cytokine production using a flow cytometric bead array. […] These experiments support the hypothesis that exosomes express the CD200 protein thereby inhibiting the ability to prime a T cell response in the draining lymph nodes of glioma bearing mice. Other antagonists were similarly evaluated.

[4] = system: mice; assay: MDSC expansion in blood of mice vaccinated with tumor lysate + CpG +/- inhibitor; assay type: in vivo; conditions: tumor lysate+CpG+inhibitor vs tumor lysate+CpG, listed as P1A12
Protocol: FIG. 23. […] Mice were vaccinated as described in FIG. 4 with peptide inhibitor P1A12. Blood from mice vaccinated with tumor lysate+CpG or tumor lysate+CpG+inhibitor were analyzed for MDSC expansion.
(§2) Mice were vaccinated as described in FIGS. 4A-4C with peptide inhibitor P1A12. Blood from mice vaccinated with tumor lysate+CpG or tumor lysate+CpG+inhibitor were analyzed for MDSC expansion (FIG. 23). […] CD11b cells isolated for wild type or CD200 receptor knock out mice were pulsed with OVA+Poly:ICLC+/−P1A12 inhibitor, and scrambled inhibitor was used as a control (FIG. 24). Cells were washed and OT-I Cells were added. Supernatants were analyzed for IFN gamma following 48 hour incubation.

[5] = system: CD200 receptor; assay: CD11b cells of wild type or CD200 receptor knock out mice pulsed with OVA+Poly:ICLC +/- P1A12, OT-I cells added, IFN gamma; assay type: cell-based; conditions: wild type vs CD200 receptor knock out CD11b cells, 48 hour incubation; listed as P1A12
Protocol: FIG. 24. […] CD11b cells isolated for wild type or CD200 receptor knock out mice were pulsed with OVA+Poly:ICLC+/−P1A12 inhibitor. Scrambled inhibitor was use as a control. Cells were washed and OT-I Cells were added. A. Supernatants were analyzed for IFN gamma following 48 hour incubation.
as §2

Sequence	Survival [1]	Tumor growth [2]	Cytokine profile (TNFa, IL-6, IL-2, IL-17) [3]	also measured
LFNTFGSQKVSGT [Antagonist 4013]	results translated to a breast carcinoma (EMT6) model; also recorded: enhanced survival benefit; also recorded: significantly extended survival benefit	tumors grow faster in mice vaccinated with saline or tumor lysate alone compared to mice vaccinated with tumor lysate plus an antagonist	–	–
RCSLKTSQE [Antagonist 6061]	significantly extended survival benefit	–	–	–
SQKVSGTACLTLY [Antagonist 4006]	–	–	different cytokine profiles	–
TASLRCSLKTSQE [Antagonist 4004]	results translated to a breast carcinoma (EMT6) model; also recorded: enhanced survival benefit; also recorded: significantly extended survival benefit	tumors grow faster in mice vaccinated with saline or tumor lysate alone compared to mice vaccinated with tumor lysate plus an antagonist	different cytokine profiles	–
VTWQKKKAVSPANM [Antagonist C-A12]	–	–	–	MDSC expansion in vivo [4]: inhibits MDSC expansion in vivo; Survival [2]: even greater survival; Survival ([2]; listed as P1-A12): enhances survival; Action on the CD200 receptor (IFN gamma in supernatants) [5]: acts as an agonist for the CD200 receptor
